Measurements published in PubChem BioAssay AID1259407 (Chemical Carcinogenesis Research Information System (CCRIS), 2018).
Active and inactive are the calls of the source. No rule for the calls is given here.

Test system: CCRIS mutagenicity, Ames/micronucleus/aberration tests
Experiment: CCRIS mutagenicity studies
[1] = Test System: AMES SALMONELLA TYPHIMURIUM, Strain/Indicator: TA100, Metabolic Activation: NONE, Method: PREINCUBATION
[2] = Test System: AMES SALMONELLA TYPHIMURIUM, Strain/Indicator: TA1535, Metabolic Activation: NONE, Method: PREINCUBATION
[3] = Test System: AMES SALMONELLA TYPHIMURIUM, Strain/Indicator: TA98, Metabolic Activation: NONE, Method: PREINCUBATION
[4] = Test System: AMES SALMONELLA TYPHIMURIUM, Strain/Indicator: TA1537, Metabolic Activation: NONE, Method: PREINCUBATION
[5] = Test System: AMES SALMONELLA TYPHIMURIUM, Strain/Indicator: TA98, Metabolic Activation: NONE, Method: STANDARD PLATE
[6] = Test System: AMES SALMONELLA TYPHIMURIUM, Strain/Indicator: TA100, Metabolic Activation: NONE, Method: STANDARD PLATE

Measured: mutagenic call

O=C(OCC1CO1)C1CCCCC1C(=O)OCC1CO1 (stereo unspecified)
active: Test System: AMES SALMONELLA TYPHIMURIUM, Strain/Indicator: TA100, Metabolic Activation: HAMSTER, LIVER, S-9, AROCLOR 1254 (30%), Method: PREINCUBATION active; positive | [1] active; positive | Test System: AMES SALMONELLA TYPHIMURIUM, Strain/Indicator: TA100, Metabolic Activation: RAT, LIVER, S-9, AROCLOR 1254 (30%), Method: PREINCUBATION active; positive | Test System: AMES SALMONELLA TYPHIMURIUM, Strain/Indicator: TA1535, Metabolic Activation: HAMSTER, LIVER, S-9, AROCLOR 1254 (30%), Method: PREINCUBATION active; positive | [2] active; positive | Test System: AMES SALMONELLA TYPHIMURIUM, Strain/Indicator: TA1535, Metabolic Activation: RAT, LIVER, S-9, AROCLOR 1254 (30%), Method: PREINCUBATION active; positive

O=C(Cl)c1ccccc1F
inactive: [3] inactive; negative | [1] inactive; negative | Test System: AMES SALMONELLA TYPHIMURIUM, Strain/Indicator: TA1535, Metabolic Activation: HAMSTER, LIVER, S-9, AROCLOR 1254, Method: PREINCUBATION inactive; negative | [2] inactive; negative | Test System: AMES SALMONELLA TYPHIMURIUM, Strain/Indicator: TA1535, Metabolic Activation: RAT, LIVER, S-9, AROCLOR 1254, Method: PREINCUBATION inactive; negative | Test System: AMES SALMONELLA TYPHIMURIUM, Strain/Indicator: TA1537, Metabolic Activation: HAMSTER, LIVER, S-9, AROCLOR 1254, Method: PREINCUBATION inactive; negative | [4] inactive; negative | Test System: AMES SALMONELLA TYPHIMURIUM, Strain/Indicator: TA1537, Metabolic Activation: RAT, LIVER, S-9, AROCLOR 1254, Method: PREINCUBATION inactive; negative
active: Test System: AMES SALMONELLA TYPHIMURIUM, Strain/Indicator: TA98, Metabolic Activation: HAMSTER, LIVER, S-9, AROCLOR 1254, Method: PREINCUBATION active; positive | Test System: AMES SALMONELLA TYPHIMURIUM, Strain/Indicator: TA98, Metabolic Activation: RAT, LIVER, S-9, AROCLOR 1254, Method: PREINCUBATION active; positive | Test System: AMES SALMONELLA TYPHIMURIUM, Strain/Indicator: TA100, Metabolic Activation: HAMSTER, LIVER, S-9, AROCLOR 1254, Method: PREINCUBATION active; positive | Test System: AMES SALMONELLA TYPHIMURIUM, Strain/Indicator: TA100, Metabolic Activation: RAT, LIVER, S-9, AROCLOR 1254, Method: PREINCUBATION active; positive

Oc1ccccc1-c1nc2ccccc2o1
inactive: [5] inactive; negative | Test System: AMES SALMONELLA TYPHIMURIUM, Strain/Indicator: TA98, Metabolic Activation: S-9, Method: STANDARD PLATE inactive; negative

CCc1c(Br)c(Br)c(Br)c(Br)c1Br
inactive: Test System: AMES SALMONELLA TYPHIMURIUM, Strain/Indicator: TA98, Metabolic Activation: HAMSTER, LIVER, S-9, AROCLOR 1254 (10%), Method: PREINCUBATION inactive; negative | [3] inactive; negative | Test System: AMES SALMONELLA TYPHIMURIUM, Strain/Indicator: TA98, Metabolic Activation: RAT, LIVER, S-9, AROCLOR 1254 (10%), Method: PREINCUBATION inactive; negative | Test System: AMES SALMONELLA TYPHIMURIUM, Strain/Indicator: TA100, Metabolic Activation: HAMSTER, LIVER, S-9, AROCLOR 1254 (10%), Method: PREINCUBATION inactive; negative | [1] inactive; negative | Test System: AMES SALMONELLA TYPHIMURIUM, Strain/Indicator: TA100, Metabolic Activation: RAT, LIVER, S-9, AROCLOR 1254 (10%), Method: PREINCUBATION inactive; negative | Test System: AMES SALMONELLA TYPHIMURIUM, Strain/Indicator: TA1535, Metabolic Activation: HAMSTER, LIVER, S-9, AROCLOR 1254 (10%), Method: PREINCUBATION inactive; negative | [2] inactive; negative | Test System: AMES SALMONELLA TYPHIMURIUM, Strain/Indicator: TA1535, Metabolic Activation: RAT, LIVER, S-9, AROCLOR 1254 (10%), Method: PREINCUBATION inactive; negative | Test System: AMES SALMONELLA TYPHIMURIUM, Strain/Indicator: TA1537, Metabolic Activation: HAMSTER, LIVER, S-9, AROCLOR 1254 (10%), Method: PREINCUBATION inactive; negative | [4] inactive; negative | Test System: AMES SALMONELLA TYPHIMURIUM, Strain/Indicator: TA1537, Metabolic Activation: RAT, LIVER, S-9, AROCLOR 1254 (10%), Method: PREINCUBATION inactive; negative

c1cnc2c3c(ccc2c1)C1OC1CC3 (stereo unspecified)
inactive: [6] inactive; negative

CN(C)c1ccc(C(=C2C=CC(=[N+](C)C)C=C2)c2ccc(N(C)C)cc2)cc1
active: Test System: E. COLI, Strain/Indicator: DG1669, Metabolic Activation: NONE, Method: STANDARD PLATE active; positive | Test System: E. COLI, Strain/Indicator: DG1669, Metabolic Activation: RAT, LIVER, S-9, AROCLOR 1254, Method: STANDARD PLATE active; positive
inactive: Test System: AMES SALMONELLA TYPHIMURIUM, Strain/Indicator: TA97, Metabolic Activation: NONE, Method: STANDARD PLATE inactive; negative | [5] inactive; negative | Test System: AMES SALMONELLA TYPHIMURIUM, Strain/Indicator: TA98, Metabolic Activation: RAT, LIVER, S-9, AROCLOR 1254, Method: STANDARD PLATE inactive; negative | [6] inactive; negative | Test System: AMES SALMONELLA TYPHIMURIUM, Strain/Indicator: TA100, Metabolic Activation: RAT, LIVER, S-9, AROCLOR 1254, Method: STANDARD PLATE inactive; negative | Test System: AMES SALMONELLA TYPHIMURIUM, Strain/Indicator: TA104, Metabolic Activation: NONE, Method: STANDARD PLATE inactive; negative | Test System: AMES SALMONELLA TYPHIMURIUM, Strain/Indicator: TA1535, Metabolic Activation: NONE, Method: STANDARD PLATE inactive; negative | Test System: AMES SALMONELLA TYPHIMURIUM, Strain/Indicator: TA1535, Metabolic Activation: RAT, LIVER, S-9, AROCLOR 1254, Method: STANDARD PLATE inactive; negative | Test System: CHINESE HAMSTER OVARY, Strain/Indicator: CHO-AS52 (GPT)/6-THIOGUANINE, Metabolic Activation: RAT, LIVER, S-9, AROCLOR 1254 inactive; negative | Test System: CHINESE HAMSTER OVARY, Strain/Indicator: CHO-K1-BH4 (HPRT)/6-THIOGUANINE, Metabolic Activation: NONE inactive; negative | Test System: CHINESE HAMSTER OVARY, Strain/Indicator: CHO-K1-BH4 (HPRT)/6-THIOGUANINE, Metabolic Activation: RAT, LIVER, S-9, AROCLOR 1254 inactive; negative

Nc1cc2[nH]c3ccccc3c2cc1[N+](=O)[O-]
inactive: [5] inactive; negative | [6] inactive; negative | Test System: AMES SALMONELLA TYPHIMURIUM, Strain/Indicator: TA1537, Metabolic Activation: NONE, Method: STANDARD PLATE inactive; negative | Test System: AMES SALMONELLA TYPHIMURIUM, Strain/Indicator: TA1538, Metabolic Activation: NONE, Method: STANDARD PLATE inactive; negative | Test System: AMES SALMONELLA TYPHIMURIUM, Strain/Indicator: TA1977, Metabolic Activation: NONE, Method: STANDARD PLATE inactive; negative | Test System: AMES SALMONELLA TYPHIMURIUM, Strain/Indicator: TA1977, Metabolic Activation: RAT, LIVER, S-9, PHENOBARBITAL, Method: STANDARD PLATE inactive; negative
active: Test System: AMES SALMONELLA TYPHIMURIUM, Strain/Indicator: TA98, Metabolic Activation: RAT, LIVER, S-9, PHENOBARBITAL, Method: STANDARD PLATE active; positive | Test System: AMES SALMONELLA TYPHIMURIUM, Strain/Indicator: TA100, Metabolic Activation: RAT, LIVER, S-9, PHENOBARBITAL, Method: STANDARD PLATE active; positive | Test System: AMES SALMONELLA TYPHIMURIUM, Strain/Indicator: TA1537, Metabolic Activation: RAT, LIVER, S-9, PHENOBARBITAL, Method: STANDARD PLATE active; positive | Test System: AMES SALMONELLA TYPHIMURIUM, Strain/Indicator: TA1538, Metabolic Activation: RAT, LIVER, S-9, PHENOBARBITAL, Method: STANDARD PLATE active; positive
